# Measured values reported in patent US5747545A, “Method of preventing NMDA receptor complex-mediated Neuronal damage” (priority 1995, dated 1998).
# Test system: NMDA receptor (rat cortical neurons in culture)
# Assay: Digital fura-2 imaging of NMDA-evoked intracellular [Ca2+] in cultured cortical neurons
# Assay type: cell-based, rat (Sprague-Dawley)
# Settings: 50 μM NMDA; Examples 1-2; NTG 100 μM in Example 2
# Procedure: The concentration of intracellular free Ca^2+ ([Ca^2+ ]i) is measured in neonatal cortical neurons by digital imaging microscopy with the Ca^2+ sensitive fluorescent dye fura 2, as follows. The same cortical neuronal cultures as described above are used. During Ca^2+ measurements, unless otherwise stated the fluid bathing the neurons consists of Hanks' balanced salts: 137.6 mM NaCl, 1 mM NaHCO3, 0.34 mM Na2 HPO4, 0.44 mM KH2 PO4, 5.36 mM KCl, 1.25 mM CaCl2, 0.5 mM MgSO4, 0.5 mM MgCl2, 5 mM Hepes NaOH, 22.2 mM glucose, and sometimes with phenol red indicator (0.001% v/v); pH 7.2. NMDA (in the absence Mg^++), glutamate, and other substances are usually applied to the neurons by pressure ejection after dilution in this bath solution. Neuronal [Ca^2+ ]i is analyzed with fura 2-acetoxy-methyl ester (AM) as described [Grynkiewicz, et al., J. Biol. Chem. 260:3440 (1985); Williams et al., Nature 318:558 (1985); Connor et al., J. Neurosci. 7:1384 (1987); Connor et al., Science 240:649 (1988); Cohan et al., J. Neurosci. 7:3588 (1987); Mattson, et al., ibid, 9:3728 (1989)]. After adding Eagle's minimum essential medium containing 10 μM fura 2-AM to the neurons, the cultures are incubated at 37° C. in a 5% CO2 /95% air humidified chamber and then rinsed. The dye is loaded, trapped, and deesterified within 1 hour, as determined by stable fluorescence ratios and the effect of the Ca^2+ ionophore ionomycin on [Ca^2+ ]i is measured. During Ca^2+ imaging, the cells are incubated in a solution of Hepes-buffered saline with Hanks' balanced salts. The [Ca^2+ ]i is calculated from ratio images that are obtained by measuring the fluorescence at 500 nm that is excited by 350 and 380 nm light with a DAGE MTI 66 SIT or QUANTEX QX-100 Intensified CCD camera mounted on a Zeiss Axiovert 35 microscope. Exposure time for each picture is 500 ms. Analysis is performed with a Quantex (Sunnyvale, Calif.) QX7-210 image-processing system. Since cells are exposed to ultraviolet light only during data collection (generally less than a total of 20 s per cell), bleaching of fura 2 is minimal.
# In this experiment, the effect of NTG on intracellular [Ca^++ ] increases induced by NMDA were followed using digital [Ca^++ ] imaging techniques, based on the dye fura-2.
# Specifically, the model for NMDA-mediated neurotoxicity involves exposure of cultured rat cortical neurons to NMDA in the presence of glycine (a co-agonist).
# Cortical cultures were derived from embryonic (fetal day 15 or 16) Sprague-Dawley rats as described previously (Dichter, 1978; Rosenberg and Aizenman, 1989). […]
smiles,measurement,value
"O=[N+]([O-])OCC(CO[N+](=O)[O-])O[N+](=O)[O-] [NTG, 1,2,3-propanetriol trinitrate]",Effect on NMDA-evoked [Ca2+]i response,persistently decreased the NMDA-evoked [Ca^2+ ]i response
